Key:
Serratia odorifera sp. = experiment: Effect of carbon monoxide on growth and TBP degradation of Serratia odorifera; format: cell-based; conditions: aerobiosis; for effect of CO on growth: Tsb medium
[1] = system: Rp. palustris CGA009 (ATCC BAA-98); experiment: Effect of the cytochrome P450 inhibitor carbon monoxide on growth and TBP degradation of Rp. palustris; conditions: for effect of CO on growth: photosynthetic conditions, Hutner medium
[2] = system: proteins extracted from Rp. palustris CGA009; format: biochemical, Rhodopseudomonas palustris
Rp. palustris = experiment: Growth of wild-type Rp. palustris in the presence of gentamycin; format: cell-based, Rhodopseudomonas palustris; conditions: gentamycin 50 μg·ml^−1
Rp. palustris ΔpRpa1 = format: cell-based, Rhodopseudomonas palustris

[C-]#[O+] [CO, carbon monoxide]
effect of CO on TBP degradation yield (Serratia odorifera sp.; 2 mM TBP): does not significantly modify
effect of CO on growth (Serratia odorifera sp.; 2 mM TBP present): nor does it affect the growth
effect of CO on growth (Serratia odorifera sp.; TBP absent): does not affect the growth
effect of CO on growth ([1]; 2 mM TBP present): greatly reduced
effect of CO on growth ([1]; TBP absent): does not affect the growth
effect of CO on TBP degradation ([1]; residual TBP after 21 days of culture, 2 mM TBP): considerable decrease in TBP degradation

Cc1cc2c(cc1C)N(C[C@H](O)[C@H](O)[C@H](O)COP(=O)(O)OP(=O)(O)OC[C@H]1O[C@@H](n3cnc4c(N)ncnc43)[C@H](O)[C@@H]1O)c1[nH]c(=O)[nH]c(=O)c1N2 [FADH2]
effect of cofactor on TBP degradation [2]: does not significantly enhance

NC(=O)C1=CN([C@@H]2O[C@H](COP(=O)(O)OP(=O)(O)OC[C@H]3O[C@@H](n4cnc5c(N)ncnc54)[C@H](O)[C@@H]3O)[C@@H](O)[C@H]2O)C=CC1 [NADH]
effect of cofactor on TBP degradation [2]: does not significantly enhance

gentamycin
resistance of the strain to the antibiotic (Rp. palustris): naturally resistant
growth in the presence of the antibiotic (Rp. palustris ΔpRpa1): grows in the presence of this antibiotic

Source: patent publication US9029127B2, “Method of degrading TBP using a photosynthetic bacterial strain” (priority 2003, dated 2015)
